{"source": "patent US6713051B2", "about": "“Antiperspirant or deodorant compositions” (Unilever Home & Personal Care USA division of Conopco, Inc., priority 2001, dated 2004)", "biological_target": "T1, human PPARα (Homo sapiens, UniProt Q07869)", "T1 construct": "The coding region of a human PPARα cDNA was inserted downstream of the CMV promoter; expressed in transfected cells; host or cells: Cos-7 cells, transient transfection (pcDNA3.1(−)-PPARα, pRSV-RXRα, 3xPPRE-TK-luc reporter, pRL-TK)", "T1 sequence (Q07869 1-468)": "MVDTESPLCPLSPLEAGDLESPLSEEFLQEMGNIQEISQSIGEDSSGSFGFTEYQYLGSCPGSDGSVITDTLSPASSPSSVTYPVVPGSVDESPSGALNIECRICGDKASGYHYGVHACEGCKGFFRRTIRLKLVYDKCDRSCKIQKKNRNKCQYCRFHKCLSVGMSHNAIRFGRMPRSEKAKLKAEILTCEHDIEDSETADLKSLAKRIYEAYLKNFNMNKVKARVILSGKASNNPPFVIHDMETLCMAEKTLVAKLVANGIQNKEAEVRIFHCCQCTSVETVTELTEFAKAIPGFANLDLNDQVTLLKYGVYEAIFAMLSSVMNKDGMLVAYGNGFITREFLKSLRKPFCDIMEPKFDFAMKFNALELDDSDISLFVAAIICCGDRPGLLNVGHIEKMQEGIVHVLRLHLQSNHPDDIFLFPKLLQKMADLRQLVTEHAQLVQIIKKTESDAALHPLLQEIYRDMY", "T1 sequence (P19793 1-462 partner)": "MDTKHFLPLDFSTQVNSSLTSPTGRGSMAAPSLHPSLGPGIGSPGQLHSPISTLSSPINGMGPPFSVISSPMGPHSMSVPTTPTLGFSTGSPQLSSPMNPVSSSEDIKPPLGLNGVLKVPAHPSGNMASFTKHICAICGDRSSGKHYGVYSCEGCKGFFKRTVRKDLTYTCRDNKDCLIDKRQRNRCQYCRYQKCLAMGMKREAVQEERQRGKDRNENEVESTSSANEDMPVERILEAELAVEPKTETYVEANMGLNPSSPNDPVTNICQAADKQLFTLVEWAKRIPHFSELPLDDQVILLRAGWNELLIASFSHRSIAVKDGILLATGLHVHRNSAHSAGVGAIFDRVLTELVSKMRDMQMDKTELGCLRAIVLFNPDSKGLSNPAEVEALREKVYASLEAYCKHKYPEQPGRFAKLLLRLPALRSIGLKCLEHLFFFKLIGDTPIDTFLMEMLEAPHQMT", "assay": "PPARα reporter gene assay (firefly luciferase, transiently transfected Cos-7 cells)", "format": "cell-based"}
{"compound": "CC\\C=C/C=C/C=C/C=C\\CCCCCCCC(=O)O", "note": "[cis parinaric acid, cis-parinaric acid]", "values": [{"measurement": "Result at (lowest administration level at which super or MS activity was achieved)", "value": 25, "unit": "μm"}, {"measurement": "Result (superior activity class achieved)", "setting": "class reached", "value": "super (superior activity [super] (50% higher—at least 2.25 times PPARα activation))"}, {"measurement": "Pass at (lowest tested administration level at which the test material passed)", "setting": "pass = activation greater than oleic acid at 100 μM, commonly >1.57 times vehicle control, 24 h treatment", "value": 10, "unit": "μm"}]}
